A word on the IC50: it is the concentration that gives 50% inhibition.

Molecules are shown by their SMILES.

The target of this test is T1, ALK (baculovirus expressed human ALK kinase domain F1098-K1410) (Homo sapiens, UniProt Q9UM73).
T1 construct: baculovirus expressed human ALK kinase domain F1098-K1410; made in house
T1 sequence (Q9UM73 1098-1410): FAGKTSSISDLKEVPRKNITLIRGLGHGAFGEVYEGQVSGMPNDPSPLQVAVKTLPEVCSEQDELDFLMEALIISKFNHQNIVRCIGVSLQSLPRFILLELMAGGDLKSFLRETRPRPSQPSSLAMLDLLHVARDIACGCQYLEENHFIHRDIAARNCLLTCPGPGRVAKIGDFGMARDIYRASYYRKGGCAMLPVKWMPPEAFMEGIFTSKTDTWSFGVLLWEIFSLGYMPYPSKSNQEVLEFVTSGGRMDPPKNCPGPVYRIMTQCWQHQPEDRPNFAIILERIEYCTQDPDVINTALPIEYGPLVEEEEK
The test can be described thus: Luciferase-Coupled Chemiluminescent Kinase assay (LCCA), ALK biochemical activity. As to conditions: inhibition of ALK; mean values; 1 μM ATP, 4 μM poly-AEKY, 12 nM ALK, 2 hours ambient temperature. The essentials:
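Luciferase-coupled readout of ATP remaining after reaction of 12 nM ALK kinase domain with 1 μM ATP and 4 μM poly-AEKY, Tris-HCl pH 7.5 buffer with MgCl2 and MnCl2. Incubated 2 h at ambient temperature; inhibition derived from ATP consumption across serial compound dilutions.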
`Cc1n[nH]c2nc(-c3ccc(O)c(Cl)c3)c3cc4c(cc3c12)OCCO4` [Example 140, 2-chloro-4-(1-methyl-8,9-dihydro-3H-[1,4]dioxino[2,3-g]pyrazolo[3,4-c]isoquinolin-5-yl)phenol] came in with an IC50 of no more than 99 nM. The value for `Cc1n[nH]c2nc(-c3ccc(O)c(Cl)c3)c3cc4c(cc3c12)OCCCO4` [Example 141, 2-chloro-4-(1-methyl-9,10-dihydro-3H,8H-[1,4]dioxepino[2,3-g]pyrazolo[3,4-c]isoquinolin-5-yl)phenol] was no more than 99 nM; that for `COc1cc2c(cc1OC(F)F)c(-c1ccc(O)c(Cl)c1)nc1[nH]nc(C)c12` [Example 142, 2-chloro-4-[7-[(difluoromethyl)oxy]-1-methyl-8-(methyloxy)-3H-pyrazolo[3,4-c]isoquinolin-5-yl]phenol] was no more than 99 nM; that for `COCCOc1cc(F)c2c(-c3cc(Cl)c(O)cc3F)nc3[nH]nc(C)c3c2c1OC` [Example 143, 2-chloro-5-fluoro-4-(6-fluoro-1-methyl-9-(methyloxy)-8-{[2-(methyloxy)ethyl]oxy}-3H-pyrazolo[3,4-c]isoquinolin-5-yl)phenol] was no more than 99 nM. The value for `COCCOc1cc(F)c2c(-c3cc(Cl)c(O)cc3F)nc3[nH]nc(C)c3c2c1F` [Example 144, 2-chloro-4-(6,9-difluoro-1-methyl-8-{[2-(methyloxy)ethyl]oxy}-3H-pyrazolo[3,4-c]isoquinolin-5-yl)-5-fluorophenol] was no more than 99 nM.

In turn, `Cc1n[nH]c2nc(-c3ccc(O)c(Cl)c3)c3ccc4c(c3c12)OCCO4` [Example 145, 2-chloro-4-(11-methyl-2,3-dihydro-9H-[1,4]dioxino[2,3-f]pyrazolo[3,4-c]isoquinolin-7-yl)phenol] displayed a half-inhibitory concentration (IC50) of no more than 99 nM. With `Cc1n[nH]c2nc(-c3cc(Cl)c(O)cc3F)c3ccc4c(c3c12)OCCO4` [Example 146, 2-chloro-5-fluoro-4-(11-methyl-2,3-dihydro-9H-[1,4]dioxino[2,3-f]pyrazolo[3,4-c]isoquinolin-7-yl)phenol] the figure was no more than 99 nM. With `COc1cc2c(c(-c3ccc(O)c(Cl)c3)nc3[nH]nc(C)c32)c(OC)c1OC` [Example 147, 2-chloro-4-[1-methyl-6,7,8-tris(methyloxy)-3H-pyrazolo[3,4-c]isoquinolin-5-yl]phenol] the figure was no more than 99 nM. The value for `COCCOc1cc(F)c2c(-c3cc(Br)c(O)cc3F)nc3[nH]nc(C)c3c2c1F` [Example 148, 2-bromo-4-(6,9-difluoro-1-methyl-8-{[2-(methyloxy)ethyl]oxy}-3H-pyrazolo[3,4-c]isoquinolin-5-yl)-5-fluorophenol] was no more than 99 nM; that for `Cc1n[nH]c2nc(-c3cccc(Cl)c3)c3ccc4c(c3c12)OCCO4` [Example 149, 7-(3-chlorophenyl)-11-methyl-2,3-dihydro-9H-[1,4]dioxino[2,3-f]pyrazolo[3,4-c]isoquinoline] was greater than 2000 nM. For `Cc1n[nH]c2nc(-c3cc(Cl)c(O)cc3F)c3c(F)c4c(cc3c12)OCCO4` [Example 150, 2-chloro-5-fluoro-4-(6-fluoro-1-methyl-8,9-dihydro-3H-[1,4]dioxino[2,3-g]pyrazolo[3,4-c]isoquinolin-5-yl)phenol], the IC50 is no more than 99 nM. The value for `COc1cc2c(-c3ccc(O)c(Cl)c3)nc3[nH]nc(C)c3c2cc1OCC1CCCO1` (stereo not shown) [Example 151, 2-chloro-4-{1-methyl-7-(methyloxy)-8-[(tetrahydrofuran-2-ylmethyl)oxy]-3H-pyrazolo[3,4-c]isoquinolin-5-yl}phenol] was no more than 99 nM; that for `COc1cc2c(-c3ccc(O)c(Cl)c3)nc3[nH]nc(C)c3c2cc1OCC1CCCCO1` (stereo not shown) [Example 152, 2-chloro-4-{1-methyl-7-(methyloxy)-8-[(tetrahydro-2H-pyran-2-ylmethyl)oxy]-3H-pyrazolo[3,4-c]isoquinolin-5-yl}phenol] was no more than 99 nM; that for `COc1cc2c(-c3ccc(O)c(Cl)c3)nc3[nH]nc(C)c3c2cc1OCC(F)(F)F` [Example 153, 2-chloro-4-{1-methyl-7-(methyloxy)-8-[(2,2,2-trifluoroethyl)oxy]-3H-pyrazolo[3,4-c]isoquinolin-5-yl}phenol] was 100 to 999 nM. With `COc1c(OC)c(F)c2c(c(-c3cc(Cl)c(O)cc3F)nc3[nH]nc(C)c32)c1OC` [Example 154, 2-chloro-5-fluoro-4-[9-fluoro-1-methyl-6,7,8-tris(methyloxy)-3H-pyrazolo[3,4-c]isoquinolin-5-yl]phenol] the figure was no more than 99 nM; with `Cc1n[nH]c2nc(-c3ccc(O)c(Cl)c3)c3c(F)cc(O)c(F)c3c12` [Example 155, 5-(3-chloro-4-hydroxyphenyl)-6,9-difluoro-1-methyl-3H-pyrazolo[3,4-c]isoquinolin-8-ol], no more than 99 nM. The value for `COCCOc1cc(F)c2c(-c3ccccc3F)nc3[nH]nc(C)c3c2c1F` [Example 156, 6,9-difluoro-5-(2-fluorophenyl)-1-methyl-8-{[2-(methyloxy)ethyl]oxy}-3H-pyrazolo[3,4-c]isoquinoline] was greater than 2000 nM; that for `Cc1n[nH]c2nc(-c3ccc(O)c(Cl)c3)c3c(F)cc(OC(F)F)c(F)c3c12` [Example 157, 2-chloro-4-{8-[(difluoromethyl)oxy]-6,9-difluoro-1-methyl-3H-pyrazolo[3,4-c]isoquinolin-5-yl}phenol] was no more than 99 nM.

In turn, `Cc1n[nH]c2nc(-c3cc(Cl)c(O)cc3F)c3c(F)c4c(c(F)c3c12)OCCO4` [Example 158, 2-chloro-4-(6,11-difluoro-1-methyl-8,9-dihydro-3H-[1,4]dioxino[2,3-g]pyrazolo[3,4-c]isoquinolin-5-yl)-5-fluorophenol] had an IC50 of no more than 99 nM. The value for `Cc1n[nH]c2cc(-c3ccc(O)cc3)c3ccccc3c12` [Example 159, 4-(1-methyl-3H-benzo[e]indazol-5-yl)phenol] was 100 to 999 nM; that for `Cc1n[nH]c2nc(-c3ccccc3F)c3c(F)cc4c(c3c12)OCCO4` [Example 160, 6-fluoro-7-(2-fluorophenyl)-11-methyl-2,3-dihydro-9H-[1,4]dioxino[2,3-f]pyrazolo[3,4-c]isoquinoline] was 100 to 999 nM. The value for `COc1cc2c(-c3ccc(O)c(Cl)c3)nc3[nH]nc(C)c3c2cc1OCC1CCOCC1` [Example 161, 2-chloro-4-{1-methyl-7-(methyloxy)-8-[(tetrahydro-2H-pyran-4-ylmethyl)oxy]-3H-pyrazolo[3,4-c]isoquinolin-5-yl}phenol] was no more than 99 nM.

`CCOCCOc1cc2c(cc1OC)c(-c1ccc(O)c(Cl)c1)nc1[nH]nc(C)c12` [Example 162, 2-chloro-4-[8-{[2-(ethyloxy)ethyl]oxy}-1-methyl-7-(methyloxy)-3H-pyrazolo[3,4-c]isoquinolin-5-yl]phenol] returned an IC50 of no more than 99 nM. The value for `Cc1n[nH]c2nc(-c3ccc(O)cc3F)c3c(F)cc4c(c3c12)OCCO4` [Example 164, 3-fluoro-4-(6-fluoro-11-methyl-2,3-dihydro-9H-[1,4]dioxino[2,3-f]pyrazolo[3,4-c]isoquinolin-7-yl)phenol] was no more than 99 nM; that for `Cc1n[nH]c2nc(-c3cc(Cl)c(O)cc3F)c3c(F)cc4c(c3c12)OCCO4` [Example 165, 2-chloro-5-fluoro-4-(6-fluoro-11-methyl-2,3-dihydro-9H-[1,4]dioxino[2,3-f]pyrazolo[3,4-c]isoquinolin-7-yl)phenol] was no more than 99 nM.

The values are drawn from patent US7872014B2, “Anaplastic lymphoma kinase modulators and methods of use” (Exelixis, Inc., priority 2003, dated 2011).
